From patent US5069812A, “Bleach/builder precursors” (priority 1990, dated 1991)

How the values were obtained:
[1] = Stain bleaching on tea-stained cotton (Terg-O-Tometer wash, reflectance change); conditions: 40° C., 15 minutes, BC1 cloth, pH = 9.0-9.5, [precursor] = 6.2 × 10^-4 M, [H2O2] = 6.25 × 10^-3 M; corrected for H2O2 and detergent alone
Method: Typically, cotton test pieces (4 in.×4 in.) stained with the tea are washed in a Terg-O-Tometer in 1 l. of aqueous solution containing a given level of bleach precursor, hydrogen peroxide, buffer, and surfactant (generally sodium dodecylbenzenesulfonate).
Washes are carried out at 40° C. for 15 minutes. Stain bleaching is measured reflectrometrically using a Colorgard System/05 Reflectometer. Bleaching is indicated by an increase in reflectance, reported as ΔR. In general a ΔR of one unit is perceivable in a paired comparison while ΔR of two units is perceivable monadically. In reporting the reflectance change, the change in reflectance caused by general detergency and bleaching by the excess hydrogen peroxide has been accounted for. Thus ΔR can actually be expressed as: ΔR=(the value of the Reflectance of stained fabric washed with precursor, H2 O2 and detergent minus the value of the Reflectance of stained fabric before washing) minus (the value of the Reflectance of stained fabric washed with H2 O2 and detergent alone minus the value of the Reflectance of stained fabric before washing).
The formulation of the detergent base used for the bleaching test is as follows: […]

[2] = Peracid generation from precursors (perhydrolysis yield); conditions: 40° C., [BPD] = 6.24 × 10^-4 M, [H2O2] = 6.24 × 10^-3 M
Method: The precursors described herein can be used to generate peroxycarbonic acid bleaches in basic aqueous solution containing a source of hydrogen peroxide and, optimally, may contain typical detergent ingredients. […] The hydrogen peroxide source is added just prior to addition of the precursor. Ten milliliter aliquots of solution are withdrawn from the beaker at regular intervals and are added to a 250 ml titration flask containing crushed ice (150 g), glacial acetic acid (30 ml) and 4% aqueous potassium iodide (5 ml). After development for ten minutes with occasional agitation, the iodine produced is titrated with standard sodium thiosulfate solution. Time zero is taken as the point of introduction of precursor into the peroxyide solution. Precursor perhydrolysis experiments are generally carried out for a maximum of 15 minutes.
Since hydrogen peroxide itself contributes to the total active oxygen in these titrations, controls or "blanks" are obtained by carrying out a perhydrolysis experiment in the absence of precursor. These hydrogen peroxide blanks are subtracted from the total active oxygen titration in the presence of bleach precursor to give the level of active oxygen produced by precursor perhydrolysis.
Peroxycarbonic acid generation is determined at pH 8, 9, and 10. Borax buffer is used for experiments at pH 9 and 10 while phosphate buffer is employed for experiments carried out at pH 8. Adjustment of the buffer systems at 40° C. to the exact pH is carried out with 1M hydrochloric acid or sodium hydroxide solution.

[3] = Biodegradability (statement, no test described); conditions: chelidamic acid moiety
[4] = Determination of calcium binding (Ca ion selective electrode titration); format: physicochemical; conditions: pH 10, 0.05 g/l solution, ionic strength 0.02-0.03M (NaCl), titrated with 0.02M CaCl2
Method: Calcium binding data was obtained at a pH of 10 by titrating 100 ml of 0.05 g/l precursor solution at an ionic strength of 0.02-0.03M (NaCl) with a 0.02M CaCl2 solution. A Radiometer calcium ion selective electrode was used to measure free Ca^++ ion concentration of the solutions. Data was corrected for dilution during each titration.

Row | Binding Constants Log KCa [4] | Compound | Bleaching Performance Δ R [1] | other results
1 |  | O=C(Oc1cc(C(=O)O)nc(C(=O)O)c1)c1ccccc1.[Na].[Na] [BPD, Disodium, 4-Benzoyloxy-2,6-Pyridinedicarboxylic Acid] | > 6.0 | Perhydrolysis yields from BPD (peroxycarbonic acid yield as a percent of theoretical), 1 minute ([2]; pH 10, 1 minute): 91.35%; Perhydrolysis yields from BPD (peroxycarbonic acid yield as a percent of theoretical), 8 minutes ([2]; pH 10, 8 minutes): 17.63%; Perhydrolysis yields from BPD (peroxycarbonic acid yield as a percent of theoretical), 15 minutes ([2]; pH 10, 15 minutes): 0%
2 |  | C[N+](C)(C)CCOC(=O)Oc1cc(C(=O)O)nc(C(=O)O)c1 [CCPD, Disodium, 4-Choline Carbonate-2,6-Pyridinedicarboxylic Acid] | > 15.0 | 
3 |  | O=C(Oc1cc(C(=O)O)nc(C(=O)O)c1)c1cccc(CCl)c1 [CBPD, Disodium, 4-(3-Chloromethyl)benzoyloxy-2,6-Pyridinedicarboxylic Acid] | > 6.0 | 
4 | 5.70 | O=C(O)c1cc(O)cc(C(=O)O)n1 [Chelidamic Acid, 1,4-Dihydro-4-oxo-2,6-pyridine dicarboxylic acid] |  | biodegradability [3]: biodegradable
5 | 5.85 | O=P(O)(O)OP(=O)(O)OP(=O)(O)O [Sodium Tripolyphosphate] |  | 
